In brackets after ≈: the same amount, converted by molar mass.
Columns and labels:
[1] = titration of azithromycin and clarithromycin, dispersed in water, with citric acid (FIG. 1, FIG. 2); assay type: physicochemical
gram-negative organisms = conditions: some gram-negative organisms, compared with other macrolides; cited from earlier work
Staphylococcus aureus = experiment: MIC90 for Staphylococcus aureus; assay type: cell-based
[2] = Protocol: The final solution (100 ml), has been sterilized and distributed in appropriate vials.
[3] = cited from earlier work
[4] = solubility in aqueous solution; assay type: physicochemical; conditions: aqueous citric acid/phosphate; process of the invention (citric acid/phosphate); read-out: solubility of azithromycin in aqueous solution
Description: Formulations containing azithromycin at concentration ranging from 0.01 to 10% w/v, more particularly between 0.3 and 5% w/v, are the most preferred.

in vivo = experiment: in vivo; set-up: species or system white New Zealand rabbits; conditions: rabbit, topical or ocular, Ct (tissue concentration of azithromycin)
Protocol: (§1) Twelve male white New Zealand rabbits (weighing 1.8-2.3 kg) have been randomly divided in three groups (consisting of four animals each).
(§2) I Group: three instillations (animals have been sacrificed 6 hours after the first dosing)
(§3) II Group: six instillations (animals have been sacrificed 12 hours after the first dosing)
(§4) III Group: six instillations (animals have been sacrificed 24 hours after the first dosing)
(§5) Aqueous humor has been drawn away with a 23-gauge needle attached to an insulin syringe of 1 ml. After enucleation the cornea has been excised at the limbus and removed from the eyeball. All specimens have been carefully weighed, then immediately frozen at -20° C. […] Each specimen has been ground and homogenized with 1 ml of PBS (2 min., 24,000 rpm). The suspension has been mixed with an equal volume of acetonitrile and stored at 0° C. After 1 hour, the samples have been centrifuged at 0° C. […] Aqueous humor has been directly mixed with acetonitrile before being centrifuged.

[5] = Azithromycin distribution in aqueous humor after topical application; assay type: in vivo, white New Zealand rabbits; conditions: detection limit 3.8
Protocol: as §1, §2, §3, §4, §5

gram-positive organisms = conditions: compared with other macrolides; cited from earlier work
[6] = background statement; cited from earlier work
[7] = system: Ps. aeruginosa ATCC 27853; experiment: In vitro antibacterial activity, MIC; assay type: cell-based; conditions: Pseudomonas aeruginosa
Description: (§6) In vitro bacteriostatic/bactericidal activity of azithromycin in different ophthalmic solutions has been evaluated as a function of ([H+]). Assessment of the activity it has been carried out by standardized method recommended by the National Committee for Clinical Laboratory Standards (NCCLS). In particular, three azithromycin solutions at different pH (6.5, 7.2, 7.8) in citrate-phosphate have been examined. Accordingly, three aliquots of Mueller-Hinton broth have been adjusted to the same pH of the azithromycin solutions (three) to be tested.
(§7) MIC values (μg/ml) have been measured by turbidity standard method after incubation of azithromycin aliquots, at the different pH, ranging from 18 to 24 h. Incubation for Staphylococcus spp. and Pseudomonas spp. needs aerobic conditions whereas Streptococcus spp. and Haernophilus spp. require partial anaerobic conditions during the period of incubation (5%, CO2).
(§8) Concentration of azithromycin able to inhibit the growth of the bacteria, after the period of incubation, is defined as the minimum inhibitory concentration (MIC).

S. aureus ATCC 29213 = experiment: In vitro antibacterial activity, MIC; assay type: cell-based; conditions: Staphylococcus aureus
Description: as §6, §7, §8

S. aureus ATCC 6538P = experiment: In vitro antibacterial activity, MIC; assay type: cell-based; conditions: Staphylococcus aureus, ATCC6538P
Description: as §6, §7, §8

[8] = system: S. epidermidis ATCC 12228; experiment: In vitro antibacterial activity, MIC; assay type: cell-based; conditions: Staphylococcus epidermidis
Description: as §6, §7, §8

Ps. aeruginosa ATCC 9027 = experiment: In vitro antibacterial activity, MIC; assay type: cell-based; conditions: Pseudomonas aeruginosa
Description: as §6, §7, §8

St. Pryogenes ATCC 21547 = experiment: In vitro antibacterial activity, MIC; assay type: cell-based
Description: as §6, §7, §8

S. aureus ATCC 25923 = experiment: In vitro antibacterial activity, MIC; assay type: cell-based; conditions: Staphylococcus aureus
Description: as §6, §7, §8

[9] = system: St. Pneumoniae ATCC 49619; experiment: In vitro antibacterial activity, MIC; assay type: cell-based; conditions: Streptococcus pneumoniae
Description: as §6, §7, §8

CC[C@H]1OC(=O)[C@H](C)[C@@H](O[C@H]2C[C@@](C)(OC)[C@@H](O)[C@H](C)O2)[C@H](C)[C@@H](O[C@@H]2O[C@H](C)C[C@H](N(C)C)[C@H]2O)[C@](C)(O)C[C@@H](C)CN(C)[C@H](C)[C@@H](O)[C@]1(C)O [azithromycin]
solubilization by citric acid ([1]; citric acid, physiological range of pH): elevated concentration
equivalent point ([1]; titration with citric acid): ~7.0 pH
antibacterial activity (gram-negative organisms): superior antibacterial activity
MIC90 (Staphylococcus aureus): 2.25 µg/mL (≈ 3 µM)
effect of azithromycin concentration on stability [2]: does not affect the stability of the final product
intracellular distribution into specific tissues ([3]; after oral administration): extensive intracellular distribution
Half-life ([3]; in vivo): extremely elevated
solubility [4]: > 100 mg/mL
concentration at 6 h (in vivo): < 200000 ng/g
concentration at 6 h (in vivo; Average): 250000 ng/g
concentration at 24 h (in vivo; Average): 420000 ng/g
azithromycin concentration in aqueous humor [5]: < 3.8 µg/mL
antibacterial efficacy (gram-positive organisms): same efficacy
water solubility [6]: poor water solubility
MIC ([7]; ATCC27853, pH 6.5): > 200 µg/mL
MIC ([7]; ATCC27853, pH 7.2): 50 µg/mL (≈ 66.8 µM)
MIC ([7]; ATCC27853, pH 7.8): 12.5 µg/mL (≈ 16.7 µM)
MIC (S. aureus ATCC 29213; ATCC29213, pH 6.5): 3.25 µg/mL (≈ 4.34 µM)
MIC (S. aureus ATCC 29213; ATCC29213, pH 7.2): 2.25 µg/mL (≈ 3 µM)
MIC (S. aureus ATCC 29213; ATCC29213, pH 7.8): 1 µg/mL (≈ 1.34 µM)
MIC (S. aureus ATCC 6538P; pH 6.5): 2.25 µg/mL (≈ 3 µM)
MIC (S. aureus ATCC 6538P; pH 7.2): 1 µg/mL (≈ 1.34 µM)
MIC (S. aureus ATCC 6538P; pH 7.8): 0.75 µg/mL (≈ 1 µM)
MIC ([8]; ATCC12228, pH 6.5): 2.5 µg/mL (≈ 3.34 µM)
MIC ([8]; ATCC12228, pH 7.2): 1.5 µg/mL (≈ 2 µM)
MIC ([8]; ATCC12228, pH 7.8): 0.75 µg/mL (≈ 1 µM)
MIC (Ps. aeruginosa ATCC 9027; ATCC9027, pH 6.5): 200 µg/mL (≈ 267 µM)
MIC (Ps. aeruginosa ATCC 9027; ATCC9027, pH 7.2): 25 µg/mL (≈ 33.4 µM)
MIC (Ps. aeruginosa ATCC 9027; ATCC9027, pH 7.8): 6.25 µg/mL (≈ 8.34 µM)
MIC (St. Pryogenes ATCC 21547; pH 6.5): 1.5 µg/mL (≈ 2 µM)
MIC (St. Pryogenes ATCC 21547; pH 7.2): 0.37 µg/mL (≈ 0.494 µM)
MIC (St. Pryogenes ATCC 21547; pH 7.8): 0.2 µg/mL (≈ 0.267 µM)
MIC (S. aureus ATCC 25923; ATCC25923, pH 6.5): 3 µg/mL (≈ 4.01 µM)
MIC (S. aureus ATCC 25923; ATCC25923, pH 7.2): 1.5 µg/mL (≈ 2 µM)
MIC (S. aureus ATCC 25923; ATCC25923, pH 7.8): 0.75 µg/mL (≈ 1 µM)
MIC ([9]; ATCC49619, pH 6.5): 1.25 µg/mL (≈ 1.67 µM)
MIC ([9]; ATCC49619, pH 7.2): 0.25 µg/mL (≈ 0.334 µM)
MIC ([9]; ATCC49619, pH 7.8): 0.15 µg/mL (≈ 0.2 µM)

From US6277829A, “Process for preparing of aqueous formulation for opthalmic use” (S.I.F.I. Societa Industria Farmaceutica Italiana S.p.A., priority 1999, dated 2001)
